Assay results published in patent publication US10280166B2, “2-(1H-indazol-3-yl)-3H-imidazo[4,5-B]pyridine and therapeutic uses thereof” (Samumed, LLC, priority 2014, dated 2019).

Legend:
Type in all cases: cell-based
[1] = tested on: primary human mesenchymal stem cells (hMSCs); assay: Chondrogenesis induction screen in primary human mesenchymal stem cells; settings: 6 days, chondrogenic nodules, dose range 10-2700 nM
Protocol: The above synthesized compounds were screened using primary human mesenchymal stem cells (hMSCs) to determine their ability to induce chondrogenesis (process by which cartilage is developed).
Primary human mesenchymal stem cells (hMSCs) were purchased from Lonza (Walkersville, Md.) and expanded in Mesenchymal Stem Cell Growth Media (Lonza). Cells between passage 3 and 6 were used for the experiments.
Each compound was dissolved in DMSO as a 10 mM stock and used to prepare compound source plates. Serial dilution (1:3, 6-point dose-response curves from 2700 nM to 10 nM) and compound transfer was performed using the ECHO 550 (Labcyte, Sunnyvale, Calif.) into 96-well clear bottom assay plates (Greiner Bio-One) with appropriate DMSO backfill for a final DMSO concentration of 0.03%. hMSCs were plated at 20,000 cells/well in 250 μL/well Incomplete Chondrogenic Induction Medium (Lonza; DMEM, dexamethasone, ascorbate, insulin-transferrin-selenium [ITS supplement], gentamycin-amphotericin [GA-1000], sodium pyruvate, proline and L-glutamine). TGF-β3 (10 ng/mL) was used as a positive control for differentiation while negative control wells were treated with 75 nL DMSO for normalization and calculating EC50 values. Cells were incubated at 37° C. and 5% CO2 for 6 days. To image chondrogenic nodules, the cells were fixed using 4% formaldehyde (Electron Microscopy Sciences), and stained with 2 μg/mL Rhodamine B (Sigma-Aldrich) and 20 μM Nile Red (Sigma-Aldrich) [Johnson K., et.al, A Stem Cell—Based Approach to Cartilage Repair, Science, (2012), 336(6082), 717-721]. The nodules imaged (4 images per well at 4× magnification) by excitation at 531 nm and emission at 625 nm and quantified using the CellInsight CX5 (Thermo Scientific). Number of nodules in each well was normalized to the average of 3 DMSO treated wells on the same plate using Excel (Microsoft Inc.). The normalized averages (fold change over DMSO) of 3 replicate wells for each compound concentration were calculated. Due to solubility limitations of some of the compounds, curve fitting was incomplete leading to inaccurate EC50 determinations.
Using TGF-β3 as a positive control, the concentration of test compounds required to induce equivalent levels of chondrogenesis is reported. In addition, the maximum activity of each compound and the respective dose that each compound reached maximum chondrogenesis activity is reported.

[2] = tested on: primary human fibroblasts derived from IPF patients (LL29 cells); assay: Inhibition of fibrosis (αSMA) in TGF-β1 treated primary human fibroblasts from IPF patients; settings: Fibroblast, 96 h, TGF-β1 20 ng/mL, 4 days, % αSMA positive cells
Method in brief: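 IPF patient-derived LL29 lung fibroblasts in 1% FBS were treated with compound (11 points, 10 μM to 1.87 nM, 0.1% DMSO) and then 20 ng/mL TGF-β1 for 4 days at 37° C. Fraction of SYTOX-negative cells positive for αSMA was quantified by immunofluorescence imaging and normalized to TGF-β1 controls. EC50 came from non-linear regression over triplicate wells.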

[3] = tested on: Wnt activity (SW480 colon carcinoma cells stably expressing the Sp5-Luc reporter gene); assay: Sp5-Luc reporter gene screening assay for Wnt activity in SW480 cells; settings: Homo sapiens, 42 h incubation, luminescence
Method in brief: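 SW480 cells stably carrying an Sp5 promoter (eight TCF/LEF sites)-luciferase reporter were plated overnight in 10% FCS medium. BrightGlo luminescence was normalised to DMSO wells, and IC50 was obtained by four-parameter fit.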

Structure (SMILES)	Conc (nM) of Max. activity [1] [nM]	EC50 [2] [nM]	IC50 [3] [nM]
CC(C)CC(=O)Nc1cncc(-c2ccc3[nH]nc(-c4nc5c(-c6cccc(F)c6)ccnc5[nH]4)c3c2)c1 [Compound 2, N-(5-(3-(7-(3-Fluorophenyl)-3H-imidazo[4,5-b]pyridin-2-yl)-1H-indazol-5-yl)pyridin-3-yl)-3-methylbutanamide]	30	0.041	2
CN(C)c1cncc(-c2ccc3[nH]nc(-c4nc5c(-c6cccc(F)c6)ccnc5[nH]4)c3c2)c1 [Compound 7, 5-(3-(7-(3-Fluorophenyl)-3H-imidazo[4,5-b]pyridin-2-yl)-1H-indazol-5-yl)-N,N-dimethylpyridin-3-amine]	100	0.066	< 1
Fc1cccc(-c2ccnc3[nH]c(-c4n[nH]c5ccc(-c6cncc(CN7CCC(F)(F)C7)c6)cc45)nc23)c1 [Compound 25, 2-(5-(5-((3,3-Difluoropyrrolidin-1-yl)methyl)pyridin-3-yl)-1H-indazol-3-yl)-7-(3-fluorophenyl)-3H-imidazo[4,5-b]pyridine]	30	0.099	< 1
Nc1cncc(-c2ccc3[nH]nc(-c4nc5c(-c6ccccc6F)ccnc5[nH]4)c3c2)c1 [Compound 55, 5-(3-(7-(2-Fluorophenyl)-3H-imidazo[4,5-b]pyridin-2-yl)-1H-indazol-5-yl)pyridin-3-amine]	30	0.017	1.8
c1cncc(-c2ccc3[nH]nc(-c4nc5c(-c6cccnc6)ccnc5[nH]4)c3c2)c1 [Compound 82, 7-(Pyridin-3-yl)-2-(5-(pyridin-3-yl)-1H-indazol-3-yl)-3H-imidazo[4,5-b]pyridine]	10	0.303	3.5
Cc1ccncc1-c1ccc2[nH]nc(-c3nc4c(-c5ccncc5)ccnc4[nH]3)c2c1 [Compound 109, 2-(5-(4-Methylpyridin-3-yl)-1H-indazol-3-yl)-7-(pyridin-4-yl)-3H-imidazo[4,5-b]pyridine]	30	0.781	13.7
CCCCC(=O)Nc1cncc(-c2ccc3[nH]nc(-c4nc5c(-c6ccccn6)ccnc5[nH]4)c3c2)c1 [Compound 148, N-(5-(3-(7-(Pyridin-2-yl)-3H-imidazo[4,5-b]pyridin-2-yl)-1H-indazol-5-yl)pyridin-3-yl)pentanamide]	100	0.085	8.1
Cc1cn(-c2ccnc3[nH]c(-c4n[nH]c5ccc(-c6cncc(NC(=O)CC(C)C)c6)cc45)nc23)cn1 [Compound 184, 3-Methyl-N-(5-(3-(7-(4-methyl-1H-imidazol-1-yl)-3H-imidazo[4,5-b]pyridin-2-yl)-1H-indazol-5-yl)pyridin-3-yl)butanamide]	300	0.142	2.3
CCCC(=O)Nc1cncc(-c2ccc3[nH]nc(-c4nc5c(-c6ccsc6)ccnc5[nH]4)c3c2)c1 [Compound 277, N-(5-(3-(7-(Thiophen-3-yl)-3H-imidazo[4,5-b]pyridin-2-yl)-1H-indazol-5-yl)pyridin-3-yl)butyramide]	30	0.016	1
CC(C)Nc1cncc(-c2ccc3[nH]nc(-c4nc5c(-c6ccoc6)ccnc5[nH]4)c3c2)c1 [Compound 298, 5-(3-(7-(Furan-3-yl)-3H-imidazo[4,5-b]pyridin-2-yl)-1H-indazol-5-yl)-N-isopropylpyridin-3-amine]	30	0.102	5
CC(C)(C)C(=O)Nc1cncc(-c2ccc3[nH]nc(-c4nc5c(-c6ccc(F)s6)ccnc5[nH]4)c3c2)c1 [Compound 346, N-(5-(3-(7-(5-Fluorothiophen-2-yl)-3H-imidazo[4,5-b]pyridin-2-yl)-1H-indazol-5-yl)pyridin-3-yl)pivalamide]	300	0.009	0.4
Cc1ccc(-c2ccnc3[nH]c(-c4n[nH]c5ccc(-c6cncc(NC(=O)C(C)C)c6)cc45)nc23)s1 [Compound 373, N-(5-(3-(7-(5-Methylthiophen-2-yl)-3H-imidazo[4,5-b]pyridin-2-yl)-1H-indazol-5-yl)pyridin-3-yl)isobutyramide]	30	0.045	6.4
CCCC(=O)Nc1cncc(-c2ccc3[nH]nc(-c4nc5c(-c6cc(F)cc(CNS(C)(=O)=O)c6)ccnc5[nH]4)c3c2)c1 [Compound 433, N-(5-(3-(7-(3-Fluoro-5-(methylsulfonamidomethyl)phenyl)-3H-imidazo[4,5-b]pyridin-2-yl)-1H-indazol-5-yl)pyridin-3-yl)butyramide]	2700	> 10	3
CCCCC(=O)Nc1cncc(-c2ccc3[nH]nc(-c4nc5c(-c6cc(F)cc(NCCN(C)C)c6)ccnc5[nH]4)c3c2)c1 [Compound 460, N-(5-(3-(7-(3-((2-(Dimethylamino)ethyl)amino)-5-fluorophenyl)-3H-imidazo[4,5-b]pyridin-2-yl)-1H-indazol-5-yl)pyridin-3-yl)pentanamide]	30	0.111	11.6
Fc1cccc(-c2ccnc3[nH]c(-c4n[nH]c5ccc(-c6cn[nH]c6)cc45)nc23)c1 [Compound 1875, 2-(5-(1H-Pyrazol-4-yl)-1H-indazol-3-yl)-7-(3-fluorophenyl)-3H-imidazo[4,5-b]pyridine]	2700	0.009	5
Oc1cncc(-c2ccc3[nH]nc(-c4nc5c(-c6cccc(F)c6)ccnc5[nH]4)c3c2)c1 [Compound 1885, 5-(3-(7-(3-Fluorophenyl)-3H-imidazo[4,5-b]pyridin-2-yl)-1H-indazol-5-yl)pyridin-3-ol]	100	0.009	11
Fc1cccc(-c2ccnc3[nH]c(-c4n[nH]c5ccc(-c6ccccn6)cc45)nc23)c1 [Compound 1889, 7-(3-Fluorophenyl)-2-(5-(pyridin-2-yl)-1H-indazol-3-yl)-3H-imidazo[4,5-b]pyridine]		0.018	> 1000
Fc1cccc(-c2ccnc3[nH]c(-c4n[nH]c5ccc(-c6cnccn6)cc45)nc23)c1 [Compound 1890, 7-(3-Fluorophenyl)-2-(5-(pyrazin-2-yl)-1H-indazol-3-yl)-3H-imidazo[4,5-b]pyridine]		0.167	39
CN(C)CC(=O)Nc1cncc(-c2ccc3[nH]nc(-c4nc5c(-c6cccc(F)c6)ccnc5[nH]4)c3c2)c1 [Compound 2373, 2-(Dimethylamino)-N-(5-(3-(7-(3-fluorophenyl)-3H-imidazo[4,5-b]pyridin-2-yl)-1H-indazol-5-yl)pyridin-3-yl)acetamide]		0.233	91
